Source: patent publication US9718809B2, “Bisarylsulfonamides useful in the treatment of inflammation and cancer” (Kancera AB, priority 2011, dated 2017)
Each block holds one compound with its values, some of them ahead of it.

Columns and labels:
[1] = system: F-2,6-P2 in SW620 cells; test: Quantification of F-2,6-P2 (Van Schaftingen coupled enzyme assay) in SW620 cells; type: cell-based; conditions: Homo sapiens, SW-620, read-out: IC50 based on quantification of F-2,6-P2
Text: (§1) A method for quantification of F-2,6-P2 has been described by Van Schaftingen et al. (1982) Eur. J. Biochem. 129, 191-5. This sensitive assay is based on the potent activation of pyrophosphate dependent phosphofructokinase-1 (PPi-PFK) from potato tubers by F-2,6-P2. The use of a series of coupled enzymes leads to a consumption of NADH (nicotinamide adenine dinucleotide) that can be followed spectrophotometrically (an updated protocol is available in Van Schaftingen, (1984) Methods of Enzymatic Analysis (Bergmeyer, H. U., ed.), 3rd edn., vol. 6, pp. 335-341, Verlag Chemie, Weinheim). A protocol for measurements in 96-well microtiter plate format is also available (Bruni et al., (1989) Anal. Biochem. 178, 324-6).
(§2) The levels of F-2,6-P2 have been determined using the van Shaftingen assay as described in the protocol below, in six different cancer cell lines endogenously expressing varying levels of the different isoforms of PFK-2/BPase-2 (MCF-7, PANC-1, NUGC-3, SW480, SW620 and MIA PaCa-2). All reagents were purchased from commercial sources or prepared in-house.
Cell line E (SW620, human colorectal adenocarcinoma): SW620 cells (ATCC-CCL-227), lot. no. 58483168. Cells were seeded at a concentration of ˜350 000 cells/mL in 100 μL growth medium (˜35 000 cells/well).
(§3) Growth medium (cell lines B-F): Dulbecco's Modified Eagle's Medium, DMEM, VWR, LONZ12-604F; 10% FBS, Invitrogen, 10270-106. […]

[2] = system: PANC-1 cells; test: Inhibition of cancer cell proliferation, total cellular protein (Sulphorhodamine B), PANC-1; conditions: Homo sapiens, 72 h, read-out: IC50 based on quantitation of total cellular protein after treatment
Procedure: To assess the antiproliferative response elicited by the compounds of the present invention in different tumour cell lines, total cellular protein in samples was quantified using the Sulphorhodamine B kit, TOX6, (Sigma-Aldrich). The protocol is based on quantitation of total cellular protein after indicated treatments and incubation times using the Sulphorhodamine B kit, TOX6, (Sigma-Aldrich).
(§4) Briefly, after protein precipitation using TCA according to the manufacturer's instructions, the sulphorhodamine dye (80 μL/well) was added to the air-dried wells. After 20 min incubation at room temperature, the dye was discarded and the samples were gently rinsed with 1% HOAc until clear. After air drying, bound dye was solubilised in 200 μL 10 mM Tris base, and the absorbance of dye was measured at 565 nm. To quantify growth, samples were collected also at t=0 h, and the resulting absorbance was set to 100%.
For experiments studying the effect of the herein described compounds per se, i.e. without combination treatment with cisplatin, the above protocol was applied with the following modifications. See Table II for details for each specific cell line. Briefly, cells were plated at a density of 6,000 cells/well 96-well Corning Costar tissue culture plates (CLS3596, Sigma-Aldrich) in assay medium and allowed to attach over night at 37° C., 5% CO2. Day 2 the compounds were diluted ½ in dose response curve mode in 100% DMSO, required volume was transferred to assay medium to a maximal DMSO concentration of 0.1%. The diluted compounds were added to the cells with a starting dose response concentration of 100 μM. All compounds were tested in duplicate plates.
as §4, with “After” for “Briefly, after”, “sulforhodamine B” for “sulphorhodamine”, “(50” for “(80”, “100” for “200”, “530 nm and a background absorbance (subtract from the measurement at 530 nm) at 690” for “565”, “h.” for “h, and the resulting absorbance was set to 100%.”

[3] = system: F-2,6-P2 in MIA PaCa-2 cells; test: Quantification of F-2,6-P2 (Van Schaftingen coupled enzyme assay) in MIA PaCa-2 cells; type: cell-based; conditions: Homo sapiens, read-out: IC50 based on quantification of F-2,6-P2
Text: as §1, §2
Cell line F (MIA PaCa-2, human pancreatic carcinoma): MIA PaCa-2 cells (ATCC-CRL-1420), lot. no. 59270201. Cells were seeded at a concentration of ˜250 000 cells/mL in 100 μL growth medium (˜25 000 cells/well). […]

[4] = system: NMRI mice; test: In vivo tolerance in NMRI mice; parameters: species or system mouse; conditions: 25 and 45 mg/kg
Procedure: In vivo tolerance was tested in NMRI mice using Examples 157 and 183 in 2 doses (25 and 45 mg/kg), following intraperitoneal injections daily for seven days.

[5] = system: F-2,6-P2 in SW480 cells; test: Quantification of F-2,6-P2 (Van Schaftingen coupled enzyme assay) in SW480 cells; type: cell-based; conditions: Homo sapiens, read-out: IC50 based on quantification of F-2,6-P2
Text: as §1, §2
Cell line D (SW480, human colorectal adenocarcinoma): SW480 cells (ATCC-CCL-228), lot. no. 58471880. Cells were seeded at a concentration of ˜350 000 cells/mL in 100 μL growth medium (˜35 000 cells/well).
as §3

[6] = system: F-2,6-P2 in NUGC-3 cells; test: Quantification of F-2,6-P2 (Van Schaftingen coupled enzyme assay) in NUGC-3 cells; type: cell-based; conditions: Homo sapiens; NUGC-3 cells seeded at 25 000 cells/well; read-out: IC50 based on quantification of F-2,6-P2
Text: as §1, §2
Cell line C (NUGC-3, human gastric cancer cell line): NUGC-3 cells (JCRB0822), lot no. 04272009. Growth medium: RPMI1640, #R8758, Sigma-Aldrich; 10% FBS, Invitrogen, 10270-106 or Dulbecco's Modified Eagle's Medium, DMEM, VWR, LONZ12-604F; 10% FBS, Invitrogen, 10270-106. Cells were seeded at a concentration of ˜350 000 cells/mL in 100 μL growth medium (˜35 000 cells/well).
Starvation medium (cell lines A-F): DMEM/F12 without phenol red and glucose free, SVA, 991373; 0.25% FBS, Invitrogen, 10270-106.
Induction medium (cell lines A-F): DMEM/F12 without phenol red and glucose free, SVA, 991373; 0.25% FBS, Invitrogen, 10270-106 (same as starvation medium).
Cells were seeded in 96-well Corning Costar tissue culture plates (CLS3595, Sigma-Aldrich) using the concentrations specified above for the different cell lines A-F and incubated over night at 37° C. and 5% CO2. Row A in the plate was left empty and the cell lines added to rows B-H. Next day the growth medium was discarded and replaced with 100 μL starvation medium. The plates were incubated for 18 h at 37° C. and 5% CO2. After 18 h of starvation the cells were induced with 100 μL compound or control solutions. Compounds were either tested in two concentrations (50 μM and 10 μM) or in dose response curves starting from 50 μM. The final DMSO concentration in assay plates was 0.5%. Also a dose response curve of a reference inhibitor was included in row H on each plate. All compounds were tested in duplicate plates. Compounds (in 96 well CLS 3365, Sigma-Aldrich plates) were serial diluted in DMSO from 10 mM compound DMSO stock solutions with Janus (automated liquid handling workstation from PerkinElmer). Five μL were transferred to a Greiner deep well plate (736-0155, VWR) with 495 μL starvation medium. The final start concentration of compounds in the dilution plate was 100 μM, 1% DMSO. For compounds tested as single points, 10 mM compound solutions were diluted five fold in DMSO to 2 mM, followed by the transfer of 5 μL to separate dilution plates with 495 μL starvation medium. The final concentrations of compounds in these dilution plates were 100 or 20 μM, respectively, and final concentration of DMSO was 1%. The plates were incubated at 37° C. and 5% CO2 for 1 h, followed by the addition of 10 μL 20 mM D-glucose in starvation medium. Controls, with and without 1 mM glucose, were included in row B. The final assay volume was 210 μL per well. After 2 h of incubation at 37° C. and 5% CO2, the supernatants were discarded and the cells lysed by the addition of 25 μL 250 mM NaOH. The plates were incubated at 37° C. and 5% CO2 for 5 min followed by an addition of 75 μL MilliQ dH2O. The supernatants were further diluted with 210 μL MilliQ dH2O to a final concentration of 20 mM NaOH. 200 μL were transferred to NUNC 96-well plates (7322661, VWR) and the plates were sealed and stored at −20° C. until analysis. […]

IC50 [1]: 800 nM
SMILES: COCC(C)OC(=O)c1ccc(NS(=O)(=O)c2cc(Cl)c(Cl)s2)cc1O (stereo not drawn) [Example 194, 2-Methoxy-1-methylethyl 4-{[(4,5-dichlorothiophen-2-yl)sulfonyl]amino}-2-hydroxybenzoate]

IC50 [3]: 2000 nM
SMILES: COC(=O)c1ccc(NS(=O)(=O)c2cc(-c3cc(F)ccc3O)c(Cl)s2)cc1O [Example 157, methyl 4-({[5-chloro-4-(5-fluoro-2-hydroxyphenyl)-2-thienyl]sulfonyl}amino)-2-hydroxybenzoate]
histological examinations of organs ([4]; intraperitoneal daily for seven days, adrenal gland, brain, cerebellum, heart, intestines, kidneys, liver, lungs, mesenteric lymph node, pancreas, spleen): Specific lesions consistent with toxic damage were not observed | macro observations during and after treatment ([4]; intraperitoneal injections daily for seven days): no sign of abnormal behavior or health problem

IC50 [5]: 5400 nM
SMILES: O=C(OCCCN1CCOCC1)c1ccc(NS(=O)(=O)c2c(Cl)sc(Cl)c2Cl)cc1O [Example 164, 3-Morpholin-4-ylpropyl 2-hydroxy-4-{[(2,4,5-trichloro-3-thienyl)sulfonyl]amino}benzoate]

Continued, compound first:

SMILES: COC(=O)c1ccc(NS(=O)(=O)c2cc(-c3ccccc3O)c(Cl)s2)cc1O [Example 156, Methyl 4-({[5-chloro-4-(2-hydroxyphenyl)-2-thienyl]sulfonyl}amino)-2-hydroxybenzoate]
IC50 [1]: 2800 nM | IC50 [2]: 16100 nM

SMILES: COC(=O)c1ccc(NS(=O)(=O)c2cccc(-c3ccccc3O)c2)cc1O [Example 82, Methyl 2-hydroxy-4-{[(2′-hydroxybiphenyl-3-yl)sulfonyl]amino}benzoate]
IC50 [6]: 1080 nM | IC50 [5]: 6200 nM
